The results in this text go back to paper PMC12040169 (PLOS Biology, 2025).

The term viability denotes a read-out of living cells in per cent, often relative to untreated cells.

The nature of the data set: in vitro. The conditions noted are these: human, hela cells, % viability.

`CSc1ccc2cc(CSc3nnc(-c4cccs4)n3CC(=O)O)c(Cl)nc2c1` [CBK295298]: the viability at 28.5 h, 10 µM was found to be 91.3%.

Turning to `O=C(CSc1nnc(C2CC2)[nH]1)Nc1ccc(SC(F)F)cc1` [CBK295302], the viability at 28.5 h, 10 µM was found to be 101%.

As for `C=CCn1c(-c2sc(NC(=O)c3cc4ccccc4s3)nc2C)n[nH]c1=S` [CBK295303], the viability at 28.5 h, 10 µM worked out at 94.8%.

On to `CN(CC(=O)Nc1ccc(Cl)c(C(F)(F)F)c1)C(=O)c1cc(O)nc2ccccc12` [CBK295304], for which the viability at 28.5 h, 10 µM stood at 87.8%.

Regarding `Cc1nc(NC(=O)C2CC(=O)N(c3cccc(C(C)C)c3)C2)sc1-c1n[nH]c(=S)n1C` (centres unmarked) [CBK295306], the viability at 28.5 h, 10 µM worked out at 91%.

`C=CCn1c(Cc2csc(NC(=O)c3ccc(C)c(F)c3)n2)n[nH]c1=S` [CBK295307]: the viability at 28.5 h, 10 µM is 80.6%.

For the compound `COc1ccc(C2CCCN2S(=O)(=O)c2ccccc2[N+](=O)[O-])cc1OC` (centres unmarked) [CBK295309], the viability at 28.5 h, 10 µM is 96.1%.

In the case of `C=CCn1c(-c2sc(NC(=O)CCc3ccco3)nc2C)n[nH]c1=S` [CBK295312], the viability at 28.5 h, 10 µM was found to be 89.4%.

Take `CCCCOC(=O)c1ccc(NC(=O)c2cc(-c3ccco3)nc3c2c(C)nn3C)cc1` [CBK295313]: the viability at 28.5 h, 10 µM came out at 103%.

Turning to `C=CCn1c(Cc2csc(NC(=O)c3cccc(Cl)c3)n2)n[nH]c1=S` [CBK295314], the viability at 28.5 h, 10 µM is 98.3%.

Turning to `COc1ccc(-c2n[nH]c(=S)n2CC(=O)Nc2nc(-c3ccc(C)cc3C)cs2)cc1` [CBK295316], the viability at 28.5 h, 10 µM was found to be 96.9%.

On to `C=CCn1c(Cc2csc(NC(=O)c3ccc(Cl)cc3)n2)n[nH]c1=S` [CBK295318], for which the viability at 28.5 h, 10 µM is 86.7%.

For the compound `CCc1ccc(OCc2nnc(SCC(=O)NCCCC(=O)O)n2CC(C)C)cc1` [CBK295321], the viability at 28.5 h, 10 µM turned out to be 101%.

`C=CCn1c(Cc2csc(NC(=O)c3ccc([N+](=O)[O-])c(C)c3)n2)n[nH]c1=S` [CBK295323]: the viability at 28.5 h, 10 µM stood at 87%.

`C=CCn1c(Cc2csc(NC(=O)c3ccc(OC)c(OC)c3)n2)n[nH]c1=S` [CBK295324]: the viability at 28.5 h, 10 µM is 102%.

Consider `CCCn1c(C)cc(-c2csc(NC(=O)CCn3c(-c4cccs4)n[nH]c3=S)n2)c1C` [CBK295326], for which the viability at 28.5 h, 10 µM is 90.8%.

For the compound `CCc1noc(C)c1C(=O)Nc1cc(S(=O)(=O)N2CCCCC2)ccc1N(C)C` [CBK295328], the viability at 28.5 h, 10 µM was determined as 85.4%.

For `CN(C)c1ccc(CNC(=O)Cn2nc(C(=O)O)c3ccccc3c2=O)cc1` [CBK295330], the viability at 28.5 h, 10 µM was determined as 105%.

Turning to `CN(Cc1ccc(N2CCCCC2)cc1)S(=O)(=O)c1ccsc1C(=O)O` [CBK295333], the viability at 28.5 h, 10 µM is 85.5%.

In the case of `O=C(Nc1cccc(C=Cc2ccccn2)c1)c1c[nH]nc1-c1ccc(F)cc1` [CBK295335], the viability at 28.5 h, 10 µM turned out to be 78%.

Consider `Cc1ccc2cc(COC(=O)c3ccc(N4CCOCC4)nc3)c(Cl)nc2c1` [CBK295336], for which the viability at 28.5 h, 10 µM is 90.5%.

Regarding `Cc1nc(NC(=O)C2Cc3ccccc3S2)sc1-c1n[nH]c(=S)n1C` (centres unmarked) [CBK295337], the viability at 28.5 h, 10 µM is 98%.

Turning to `C=CCn1c(Cc2csc(NC(=O)c3ccc(OC(F)F)cc3)n2)n[nH]c1=S` [CBK295338], the viability at 28.5 h, 10 µM was 100%.

For the compound `C=CCn1c(Cc2csc(NC(=O)c3cccc([N+](=O)[O-])c3)n2)n[nH]c1=S` [CBK295339], the viability at 28.5 h, 10 µM amounted to 106%.

Consider `C=CCn1c(Cc2csc(NC(=O)c3ccc(S(C)(=O)=O)cc3)n2)n[nH]c1=S` [CBK295340], for which the viability at 28.5 h, 10 µM is 97%.

Regarding `COc1ccc(C(NC(=O)COc2c(Cl)cc(C(=O)O)cc2Cl)C(C)C)cc1` (centres unmarked) [CBK295344], the viability at 28.5 h, 10 µM came to 87.3%.

`Cc1nc(-c2ccco2)nc2sc(C(=O)N(C)CC3COc4ccccc4O3)c(C)c12` (centres unmarked) [CBK295347]: the viability at 28.5 h, 10 µM was 105%.

As to `O=C(CC12CC3CC(CC(C3)C1)C2)NCC(=O)Nc1ccc2[nH]c(=O)[nH]c2c1` [CBK295349], the viability at 28.5 h, 10 µM came out at 85.3%.

Regarding `O=C(Cn1c2ccccc2c(=O)c2ccccc21)Nc1ccc(-n2cncn2)nc1` [CBK295350], the viability at 28.5 h, 10 µM came out at 93.1%.

In the case of `CCCCn1c(SCC(=O)c2cc(C)n(CCc3ccc(OC)cc3)c2C)n[nH]c1=O` [CBK295351], the viability at 28.5 h, 10 µM is 96.1%.

With `COc1ccc(-c2n[nH]c(=S)n2CC(=O)N2CCN(c3cccc(C)c3)CC2)cc1` [CBK295352], the viability at 28.5 h, 10 µM came to 88.6%.

For `COc1ccc2cc(Cn3nc(C(=O)O)c4ccccc4c3=O)c(Cl)nc2c1` [CBK295354], the viability at 28.5 h, 10 µM worked out at 88%.

As for `COc1ccc2cc(CNC(Cc3ccccc3)c3ccccc3)c(Cl)nc2c1` (centres unmarked) [CBK295357], the viability at 28.5 h, 10 µM turned out to be 93.3%.

As for `Cc1nc(COc2ccc(C(=O)Nc3ccc(C(=O)O)cc3C)cc2)cs1` [CBK295360], the viability at 28.5 h, 10 µM was 91.3%.

For the compound `C=CCn1c(-c2sc(NC(=O)c3ccc(Cl)cc3F)nc2C)n[nH]c1=S` [CBK295361], the viability at 28.5 h, 10 µM worked out at 94.7%.

With `Cc1nc(NC(=O)CCN2C(=O)COc3ccccc32)sc1-c1n[nH]c(=S)n1C` [CBK295362], the viability at 28.5 h, 10 µM was found to be 98.5%.

`CCn1c(=O)c(C=Cc2cccc(Br)c2)nc2cc(C(=O)O)ccc21` [CBK295364]: the viability at 28.5 h, 10 µM turned out to be 110%.

In the case of `CCCn1c(SCC(=O)N2CCN(S(=O)(=O)c3ccc(C)cc3C)CC2)n[nH]c1=O` [CBK295590], the viability at 28.5 h, 10 µM came to 104%.

Turning to `CCCn1c(O)cc(=O)nc1SCC(=O)NCc1ccc(OC)c(OC)c1` [CBK295592], the viability at 28.5 h, 10 µM amounted to 101%.

Take `O=c1oc(-c2ccco2)nn1Cc1ccc([N+](=O)[O-])cc1` [CBK295593]: the viability at 28.5 h, 10 µM worked out at 94.8%.

Turning to `CC(Sc1nc(-c2ccccc2F)n[nH]1)C(=O)N1CCNC1=O` (centres unmarked) [CBK295594], the viability at 28.5 h, 10 µM stood at 106%.

In the case of `CCCn1c(SC(C)C(=O)c2cc(C)n(-c3ccc(Cl)cc3)c2C)n[nH]c1=O` (centres unmarked) [CBK295595], the viability at 28.5 h, 10 µM came to 86.2%.

As for `CC(=O)Nc1cccc(NC(=O)c2ccc(CN3CCCCC3)cc2)c1` [CBK295596], the viability at 28.5 h, 10 µM was 103%.

Turning to `Cc1cc(C)c(NC(=O)CSc2n[nH]c(=O)n2C2CC2)c(C)c1` [CBK295598], the viability at 28.5 h, 10 µM worked out at 95%.

`Cc1nc(C)c(CCC(=O)NC2CCCc3ccccc32)c(=O)[nH]1` (centres unmarked) [CBK295600]: the viability at 28.5 h, 10 µM was found to be 98.7%.

`Cc1nc(C)c(CCC(=O)NC2CCSc3c(F)cccc32)c(=O)[nH]1` (centres unmarked) [CBK295601]: the viability at 28.5 h, 10 µM was determined as 95.2%.

For the compound `O=C(CCn1c(=O)oc2ccccc21)N1CC=C(c2ccc(F)cc2)CC1` [CBK295602], the viability at 28.5 h, 10 µM was determined as 95.8%.

As to `Cc1ccc(SCCNC(=O)CSc2n[nH]c(=O)n2C2CC2)cc1` [CBK295605], the viability at 28.5 h, 10 µM turned out to be 120%.

On to `Cc1noc2nc(-c3ccco3)cc(C(=O)NCc3nc4ccccc4[nH]3)c12` [CBK295608], for which the viability at 28.5 h, 10 µM is 93.5%.

In the case of `O=C(CSc1ncnc2ccccc12)N(Cc1ccccc1F)C1CC1` [CBK295610], the viability at 28.5 h, 10 µM worked out at 92.1%.

As for `CC(C)[C@H](NS(=O)(=O)c1ccc(Cl)cc1)C(=O)NCc1ccc(Cn2cccn2)cc1` [CBK295611], the viability at 28.5 h, 10 µM is 104%.

For the compound `Cc1ccc(Oc2ccc(NC(=O)Cn3cnnc3C#N)cc2)cc1` [CBK295612], the viability at 28.5 h, 10 µM worked out at 106%.

`Cc1csc(NC(=O)c2cc(S(=O)(=O)N3CCCC3)cn2C)n1` [CBK295617]: the viability at 28.5 h, 10 µM was found to be 87.8%.
